Values after ≈ are worked out from the molar mass of the structure shown.
Tests used:
Candida albicans [1] = test: Antifungal activity against Candida albicans CPCC400616 measured after 24 hrs by micro-broth dilution assay; format: functional
Candida albicans [2] = test: Antifungal activity against Candida albicans ATCC SC5314 measured after 24 hrs by micro-broth dilution assay; format: functional
[Candida] zeylanoides = Antifungal activity against Candida zeylanoides CMGCC2.3739 measured after 24 hrs by micro-broth dilution assay; format: functional; details: Dujonia zeylanoides
Cryptococcus neoformans = test: Antifungal activity against Cryptococcus neoformans CGMCC2.3161 measured after 72 hrs by micro-broth dilution assay; format: functional
Pichia kudriavzevii = test: Antifungal activity against Candida krusei AS 2.1045 measured after 24 hrs by micro-broth dilution assay; format: functional
Nakaseomyces glabratus = test: Antifungal activity against clinical isolate Candida glabrata measured after 24 hrs by micro-broth dilution assay; format: functional
Candida parapsilosis = test: Antifungal activity against Candida parapsilosis ATCC 22019 measured after 24 hrs by micro-broth dilution assay; format: functional; details: Lodderomyces parapsilosis
Aspergillus fumigatus = test: Antifungal activity against Aspergillus fumigatus CGMCC 3.7795 measured after 72 hrs by micro-broth dilution assay; format: functional
Candida albicans [3] = test: Antifungal activity against fluconazole-resistant Candida albicans CaR measured after 24 hrs by micro-broth dilution assay; format: functional
Candida albicans [4] = test: Antifungal activity against fluconazole-resistant Candida albicans 17 measured after 24 hrs by micro-broth dilution assay; format: functional
Candida albicans [5] = test: Antifungal activity against fluconazole-resistant Candida albicans 632 measured after 24 hrs by micro-broth dilution assay; format: functional
Candida albicans [6] = test: Antifungal activity against Candida albicans 901 measured after 24 hrs by micro-broth dilution assay; format: functional
Candida albicans [7] = test: Antifungal activity against fluconazole-resistant Candida albicans strain 904 measured after 24 hrs by micro-broth dilution assay; format: functional
Candida albicans [8] = test: Fungicidal activity against Candida albicans CPCC400616 measured after 48 hrs; format: functional
[9] = Ratio of MFC for fungicidal activity against Candida albicans CPCC400616 to MIC for Antifungal activity against Candida albicans CPCC400616; format: functional; details: time 24 hrs
[10] = Ratio of hemolysis activity in rabbit RBC to MIC for Candida albicans; format: toxicity; details: rabbit red blood cells (RBC)

Row | Structure (SMILES) | MIC (Candida albicans [1]) | MIC (Candida albicans [2]) | MIC ([Candida] zeylanoides) | MIC (Cryptococcus neoformans) | MIC (Pichia kudriavzevii) | MIC (Nakaseomyces glabratus) | MIC (Candida parapsilosis) | MIC (Aspergillus fumigatus) | MIC (Candida albicans [3]) | MIC (Candida albicans [4]) | MIC (Candida albicans [5]) | MIC (Candida albicans [6]) | MIC (Candida albicans [7]) | MIC (Candida albicans [8]) | MFC/MIC ratio [9] | selectivity ratio [10]
1 | Fc1ccc(C(Cn2ccnc2)[Se]Cc2ccccc2Br)c(F)c1 (stereo unspecified) | 0.02 µg/mL (≈ 0.0438 µM) | 0.01 µg/mL (≈ 0.0219 µM) | 0.25 µg/mL (≈ 0.548 µM) | 0.25 µg/mL (≈ 0.548 µM) | 0.06 µg/mL (≈ 0.132 µM) | 1 µg/mL (≈ 2.19 µM) | 0.02 µg/mL (≈ 0.0438 µM) | 1 µg/mL (≈ 2.19 µM) | 0.13 µg/mL (≈ 0.285 µM) | 0.06 µg/mL (≈ 0.132 µM) | 0.25 µg/mL (≈ 0.548 µM) | 0.25 µg/mL (≈ 0.548 µM) | 0.06 µg/mL (≈ 0.132 µM) | 0.125 µg/mL (≈ 0.274 µM) | 8 | 512
2 | Clc1ccc(C(Cn2ccnc2)[Se]Cc2ccccc2Br)c(Cl)c1 (stereo unspecified) | 0.02 µg/mL (≈ 0.0409 µM) | 0.01 µg/mL (≈ 0.0204 µM) | 0.25 µg/mL (≈ 0.511 µM) | 0.5 µg/mL (≈ 1.02 µM) | 0.25 µg/mL (≈ 0.511 µM) | 0.5 µg/mL (≈ 1.02 µM) | 0.03 µg/mL (≈ 0.0613 µM) | 1 µg/mL (≈ 2.04 µM) | 0.5 µg/mL (≈ 1.02 µM) | 0.5 µg/mL (≈ 1.02 µM) | 1 µg/mL (≈ 2.04 µM) | 1 µg/mL (≈ 2.04 µM) | 0.25 µg/mL (≈ 0.511 µM) | 0.25 µg/mL (≈ 0.511 µM) | 16 | 
3 | Fc1ccc(C(Cn2ccnc2)[Se]Cc2ccc(Cl)cc2Cl)c(F)c1 (stereo unspecified) | 0.03 µg/mL (≈ 0.0672 µM) | 0.13 µg/mL (≈ 0.291 µM) | 0.5 µg/mL (≈ 1.12 µM) | 0.25 µg/mL (≈ 0.56 µM) | 0.06 µg/mL (≈ 0.134 µM) | 1 µg/mL (≈ 2.24 µM) | 0.03 µg/mL (≈ 0.0672 µM) | 0.5 µg/mL (≈ 1.12 µM) | 16 µg/mL (≈ 35.9 µM) | 1 µg/mL (≈ 2.24 µM) | 2 µg/mL (≈ 4.48 µM) | 0.5 µg/mL (≈ 1.12 µM) | 2 µg/mL (≈ 4.48 µM) | 0.125 µg/mL (≈ 0.28 µM) | 4 | 64
4 | Fc1cccc(C[Se]C(Cn2ccnc2)c2ccc(F)cc2F)c1 (stereo unspecified) | 0.03 µg/mL (≈ 0.0759 µM) | 0.03 µg/mL (≈ 0.0759 µM) | 1 µg/mL (≈ 2.53 µM) | 0.5 µg/mL (≈ 1.26 µM) | 0.13 µg/mL (≈ 0.329 µM) | 0.5 µg/mL (≈ 1.26 µM) | 0.25 µg/mL (≈ 0.632 µM) | 2 µg/mL (≈ 5.06 µM) | 4 µg/mL (≈ 10.1 µM) | 0.06 µg/mL (≈ 0.152 µM) | 8 µg/mL (≈ 20.2 µM) | 8 µg/mL (≈ 20.2 µM) | 1 µg/mL (≈ 2.53 µM) | > 128 µg/mL |  | 
5 | COc1cccc(C[Se]C(Cn2ccnc2)c2ccc(Cl)cc2Cl)c1 (stereo unspecified) | 0.06 µg/mL (≈ 0.136 µM) | 0.06 µg/mL (≈ 0.136 µM) | 1 µg/mL (≈ 2.27 µM) | 0.13 µg/mL (≈ 0.295 µM) | 1 µg/mL (≈ 2.27 µM) | 0.25 µg/mL (≈ 0.568 µM) | 0.13 µg/mL (≈ 0.295 µM) | 2 µg/mL (≈ 4.54 µM) | 2 µg/mL (≈ 4.54 µM) | 4 µg/mL (≈ 9.09 µM) | 2 µg/mL (≈ 4.54 µM) | 1 µg/mL (≈ 2.27 µM) | 1 µg/mL (≈ 2.27 µM) |  |  | 
6 | Cc1ccc(C[Se]C(Cn2ccnc2)c2ccc(F)cc2F)cc1C (stereo unspecified) | 0.5 µg/mL (≈ 1.23 µM) | 0.13 µg/mL (≈ 0.321 µM) | 1 µg/mL (≈ 2.47 µM) | 0.5 µg/mL (≈ 1.23 µM) | 8 µg/mL (≈ 19.7 µM) | 1 µg/mL (≈ 2.47 µM) | 1 µg/mL (≈ 2.47 µM) | 2 µg/mL (≈ 4.93 µM) | 128 µg/mL (≈ 316 µM) | 64 µg/mL (≈ 158 µM) | > 128 µg/mL | 128 µg/mL (≈ 316 µM) | > 128 µg/mL |  |  | 
7 | Clc1ccc(C(Cn2ccnc2)[Se]Cc2ccc(Br)cc2)c(Cl)c1 (stereo unspecified) | 0.25 µg/mL (≈ 0.511 µM) | 0.06 µg/mL (≈ 0.123 µM) | 2 µg/mL (≈ 4.09 µM) | 0.5 µg/mL (≈ 1.02 µM) | 32 µg/mL (≈ 65.4 µM) | 0.5 µg/mL (≈ 1.02 µM) | 4 µg/mL (≈ 8.18 µM) | 1 µg/mL (≈ 2.04 µM) | 128 µg/mL (≈ 262 µM) | 8 µg/mL (≈ 16.4 µM) | > 128 µg/mL | 64 µg/mL (≈ 131 µM) | 128 µg/mL (≈ 262 µM) |  |  | 
8 | Cc1ccc(C[Se]C(Cn2ccnc2)c2ccc(Cl)cc2Cl)cc1 (stereo unspecified) | 0.03 µg/mL (≈ 0.0707 µM) | 0.13 µg/mL (≈ 0.306 µM) | 16 µg/mL (≈ 37.7 µM) | 0.25 µg/mL (≈ 0.589 µM) | 4 µg/mL (≈ 9.43 µM) | 1 µg/mL (≈ 2.36 µM) | 1 µg/mL (≈ 2.36 µM) | 2 µg/mL (≈ 4.71 µM) | 16 µg/mL (≈ 37.7 µM) | 32 µg/mL (≈ 75.4 µM) | 128 µg/mL (≈ 302 µM) | 64 µg/mL (≈ 151 µM) | > 128 µg/mL |  |  | 
9 | Clc1ccc(C[Se]C(Cn2ccnc2)c2ccc(Cl)cc2Cl)cc1 (stereo unspecified) | 0.06 µg/mL (≈ 0.135 µM) | 0.03 µg/mL (≈ 0.0675 µM) | 8 µg/mL (≈ 18 µM) | 0.25 µg/mL (≈ 0.562 µM) | 0.5 µg/mL (≈ 1.12 µM) | 1 µg/mL (≈ 2.25 µM) | 0.5 µg/mL (≈ 1.12 µM) | 2 µg/mL (≈ 4.5 µM) | 16 µg/mL (≈ 36 µM) | 8 µg/mL (≈ 18 µM) | 64 µg/mL (≈ 144 µM) | 8 µg/mL (≈ 18 µM) | > 128 µg/mL |  |  | 
